Entries after “also recorded” stand apart in the source; their conditions may differ.
Legend:
[1] = test system: RAD51-ssDNA (polydT) filaments; assay: EMSA, protection of RAD51-ssDNA (polydT) filaments from BRC4-mediated disruption; type: biochemical; conditions: 100-nt polydT; 10-fold excess of Ex27
Description: (§1) To form nucleoprotein filaments, DMC1 and RAD51 was incubated with fluorescent 100-base ssDNA (5’-FAM- […]-3’) at the concentrations indicated in the figures for 30 minutes at 4 °C in reaction buffer. For DMC1, reaction buffer is 25 mM TEA (triethanolamine) pH 7.5, 1 mM ATP, 2 mM MgCl2, 0.1 mg/ml BSA, 2 mM DTT, 200 mM KCl. For RAD51, reaction buffer is 50 mM TEA (triethanolamine), 2 mM ATP, 0.5 mM MgCl2, 2 mM DTT. For assays requiring incomplete nucleoprotein filament assembly, the reaction buffer consisted of 50 mM TAE (tris, acetate, EDTA) pH 7.5, 2 mM ATP, 2 mM MgCl2, 2 mM DTT. In nucleoprotein formation stimulation assays or supershift experiments, BRCA2Ex14 or BRCA2Ex14-AAA were added for a further 30 min at 4 °C. […] Glycerol was added at a final concentration of 3%, and samples were analysed by electrophoresis on a 1% (w/v) (for DMC1) or 0.66% (w/v) (for RAD51) agarose gel in 0.5x TAE pH 8.0 at 20–40 V for ~4 h at 4 °C. DNA was detected by FAM using a Typhoon^TM FLA 9500 (GE Healthcare), with 473 nm laser at excitation wavelength 490 nm and emission wavelength 520 nm, using the LPB filter and a PMT voltage of 500 V. To analyse RAD51 nucleoprotein filaments assembled upon 100-base poly(dT) ssDNA, gels were stained post-run using SYBR^TM Gold Nucleic Acid Gel Stain (Invitrogen) and detected using a Typhoon^TM FLA 9500 (GE Healthcare).

[2] = test system: DMC1-ssDNA filaments; assay: EMSA, protection of DMC1-ssDNA filaments from BRC4-mediated disruption; type: biochemical, human; conditions: TEA pH 7.5 + KCl; Ex14 10-fold stoichiometric excess (110 μM); 10-fold excess of BRC4
Description: Finally, we tested whether binding of BRCA2 Ex14 protects DMC1-ssDNA nucleoprotein filaments from BRC4-mediated disruption (Fig. 3c). […] Further, whilst the core PhePP interaction site is sufficient to stimulate DMC1-ssDNA nucleoprotein filament formation, surrounding amino-acids that are present within Ex14 (but not Ex14-Tr) are necessary to super-shift filaments and confer protection from BRC4-mediated disruption.
as §1

[3] = test system: RAD51-ssDNA filaments; assay: EMSA, protection of RAD51-ssDNA filaments from BRC4-mediated disruption (random sequence ssDNA); type: biochemical; conditions: 100-nt random ssDNA; 10-fold excess of Ex27
Description: as §1

[4] = test system: DMC1-ssDNA filaments; assay: EMSA, super-shift of DMC1-ssDNA filaments (TEA pH 7.5 + KCl); type: biochemical, human; conditions: 100-nt random ssDNA, 4 °C
Excerpt: (§2) What is the function of the BRCA2 Ex14-DMC1 interaction? We used electrophoretic mobility shift assays (EMSAs) to determine the impact of BRCA2-binding on DMC1 nucleoprotein filaments. We used two different conditions for nucleoprotein filament assembly. Firstly, a TAE (tris, acetate, EDTA; pH 7.5) buffer that was previously used for RAD51-ssDNA filaments, in which DMC1-ssDNA filaments were partially formed at the canonical ratio of three nucleotides to one protomer (Fig. 3a). Secondly, a TEA (triethanolamine; pH 7.5) + KCl buffer based on previous DMC1 studies[36]–[38], in which DMC1-ssDNA filament formation was more complete at the canonical ratio (Fig. 3b). […] This was noticeable using Ex14 in equimolar amounts (11 μM), and became substantial at a 5-fold stoichiometric excess (55 μM) (Fig. 3b). As the KD of the DMC1-Ex14 interaction is approximately 30 μM (Fig. 2a), the requirement for a stoichiometric excess is likely due to binding being favoured at Ex14 concentrations above the KD.
as §1

[5] = test system: DMC1 V179E-ssDNA filaments; assay: EMSA, super-shift of filaments formed using DMC1 V179E; type: biochemical, human
Description: as §1

[6] = molecular target: T1, DMC1 ΔN (Homo sapiens, UniProt Q14565); assay: Microscale thermophoresis (MST), BRCA2 peptides and DMC1 ΔN; type: binding; conditions: labelled DMC1 ΔN 150 nM; pH 8.0
T1 construct: DMC1 ΔN (83-340) were cloned into pHAT4; His6 (TEV-cleavable) (N, cleaved yes); made in house; host or cells: E. coli BL21 (DE3)
T1 sequence (Q14565 83-340): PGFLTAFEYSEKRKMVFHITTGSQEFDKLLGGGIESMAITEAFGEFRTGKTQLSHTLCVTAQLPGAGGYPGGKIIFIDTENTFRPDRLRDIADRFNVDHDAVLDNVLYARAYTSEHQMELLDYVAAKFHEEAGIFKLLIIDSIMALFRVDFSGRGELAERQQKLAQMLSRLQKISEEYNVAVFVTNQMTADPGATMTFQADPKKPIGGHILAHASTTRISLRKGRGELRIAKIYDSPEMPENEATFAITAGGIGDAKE
Description: DMC1 ΔN and DMC1 ΔN loop mutant were labelled in 10 mM HEPES pH 8.0, 150 mM NaCl with an amine reactive fluorescent dye (MonolithTM Protein Labelling Kit BLUE-NHS, Nanotemper GmbH). A serial dilution of titrant (peptide) was prepared in 10 mM HEPES pH 8.0, 150 mM NaCl, 0.05 % Tween-20. The concentration of labelled DMC1 ΔN or DMC1 ΔN loop mutant were constant at 150 nM and the concentration of the interacting peptide was titrated in 1:1 dilutions starting from 750 µM. An equal volume (10 µl) of the serial dilution and of the diluted labelled DMC1 were mixed and loaded in glass capillaries (MonolithTM NT.115 MST Premium Coated Capillaries, Nanotemper GmbH). The initial fluorescence and the thermophoretic mobility were measured on a Monolith NT.115 system (NanoTemper Technologies). The excitation power was 45 % and MST power was 60 % at room temperature (~22 °C). Laser on and off times were set at 5 and 30 seconds, respectively. Data analysis was performed with NT Affinity Analysis software.
As a change in initial fluorescence was detected, SDS denaturation (SD) tests were performed according to the manufacturer’s instructions to determine whether these changes were ligand-induced and whether the data could therefore be used to derive affinity measurements. Briefly, 7 µl of the samples containing the three highest and three lowest concentrations of peptide were mixed with 7 µl of denaturation buffer (4 % SDS, 40 mM DTT). After incubating each for 5 minutes at 95 °C to denature the proteins and subject to brief centrifugation, the samples were loaded onto Premium Coated Capillaries and their initial fluorescence measurements recorded. […] Initial fluorescence readings were used to derive binding affinities.

[7] = test system: DMC1-ssDNA filaments; assay: EMSA, stimulation of DMC1-ssDNA filament formation (TAE pH 7.5); type: biochemical, human
Excerpt: as §2, §1

[8] = molecular target: T1, DMC1 ΔN; assay: Amylose pull-down of DMC1 ΔN with MBP-BRCA2 fusions; type: binding; conditions: recombinant co-expression with MBP-BRCA2 fusion
Excerpt: For affinity pulldown experiments, MBP-fusions of BRCA2 fragments (Ex14, amino-acids 2387-2420, Ex14-Tr, amino acids 2401-2414, Ex27, amino acids 3270-3315, BRC4, amino acids 1519-1551) were cloned into pMAT11 vectors[54] and co-expressed with DMC1 ΔN, DMC1 ΔN loop mutant (in which DMC1 amino acids 147-GAGGYPG-153 and 178-NVDHDA-183 were replaced by the cognate sequences of RAD51 148-IDRGGGE-154 and 179-GLSGSD-184), RAD51 ΔN, RAD51 ΔN loop mutant (the reverse switch of DMC1 ΔN loop mutant), and RAD51. MBP-fusions and complexes were purified through amylose affinity chromatography.

[9] = molecular target: the molecule itself; assay: crystal structure; DMC1 ΔN crystals soaked overnight with 3.5 mM BRCA2 Ex14-Tr peptide; anisotropic resolution limits 3.4-5.8 Å; peptide built with the guide of an AlphaFold2 model
[10] = molecular target: RAD51;BRCA2 Ex27 (Homo sapiens?;Homo sapiens?, UniProt Q06609;P51587 1-339;3270-3315, |); assay: EMSA, BRC4 protection; 10-fold excess Ex27 + BRC4, complete protection; largely protected at 33 µM Ex27; DMC1: 25 mM TEA (triethanolamine) pH 7.5, 200 mM KCl, 1 mM ATP, 2 mM MgCl2, 0.1 mg/ml BSA, 2 mM DTT, or 50 mM TAE pH 7.5, 2 mM ATP, 2 mM MgCl2, 2 mM DTT; RAD51: 50 mM TEA, 2 mM ATP, 0.5 mM MgCl2, 2 mM DTT; all 4 C, agarose gel in 0.5x TAE; conditions: tags: ;; label: none (SYBR Gold post-stain); single strand

In the case of “Ex14-AAA: Ex14 with alanine mutations F2406A, P2408A, P2409A (ATRNEKMRHLITTGRPTKVAVAAFKTKSHFHRVE; left off: His6, end not stated, cleaved | MBP, end not stated, cleaved)”, the “protection of RAD51-ssDNA (polydT) filaments from BRC4-mediated disruption” value [1] is reported as “not”, the “protection of DMC1-ssDNA filaments from BRC4-mediated disruption” value [2] is reported as “almost completely lost; also recorded: largely abrogated” and the “protection of RAD51-ssDNA filaments from BRC4-mediated disruption” value [3] is reported as “not”. The “super-shift of pre-formed DMC1-ssDNA filaments” value [4] was “largely failed to stimulate or super-shift; also recorded: largely eliminated”, the “super-shift of DMC1 V179E-ssDNA filaments” value [5] was “The residual super-shift was the same” and the “interaction by MST (in words)” value [6] was “largely disrupted; also recorded: not detectable”. The “stimulation of DMC1-ssDNA nucleoprotein filament formation” value ([7]; TAE pH 7.5, 100-nt random ssDNA, 4 °C, canonical ratio of three nucleotides to one protomer, equimolar for Ex14) was “largely failed to stimulate filament formation”, the “stimulation of DMC1-ssDNA filament formation at high concentrations” value ([7]; high peptide concentrations) was “partial stimulation; also recorded: some stimulation of filament formation” and the binding in pull-down [8] was “not”.

B1: DMC1 ΔN (amino-acids 83-340), purified (domain or fragment, human, UniProt Q14565 83-340, looked up)
chain: T1 sequence (Q14565 83-340)
modifications: amine reactive fluorescent dye (Monolith Protein Labelling Kit BLUE-NHS) in the MST only
notes: human DMC1 with its N-terminal domain deleted, amino acids 83-340; Octameric ring in the crystal and in solution; also called DMC1 core; structural core of human DMC1; source: E. coli BL21 (DE3), purified (Ni-NTA, HiTrap Q, TEV cleavage, HiTrap Q, SEC)
In the case of B1, the “stoichiometry N” value [9] is reported as 8.

B2: 100-nt poly(dT) (ssDNA)
DNA: TTTTTTTTTTTTTTTTTTTTTTTTTTTTTTTTTTTTTTTTTTTTTTTTTTTTTTTTTTTTTTTTTTTTTTTTTTTTTTTTTTTTTTTTTTTTTTTTTTTT
B2: binds [10].

Reference: article PMC11436757, “BRCA2 stabilises RAD51 and DMC1 nucleoprotein filaments through a conserved interaction mode” (Nature Communications, 2024)
